# Like-named read-outs stand apart in the source and are kept apart here.
# How the values were obtained:
# M.tb Erdman = test: Broth microdilution MIC with Alamar blue endpoint (MABA) / OD600; type: cell-based, Mycobacterium tuberculosis
# [1] = system: African green monkey kidney (Vero; ATCC # CCL81) cells; test: In vitro cytotoxicity (PrestoBlue cell viability), Vero; type: cell-based
# [2] = system: human hepatocyte/liver (HepG2; ATCC #HB8065) cells; test: In vitro cytotoxicity (PrestoBlue cell viability), HepG2; type: cell-based
# [3] = system: M. Tuberculosis Erdman or H37Rv vs VERO or HepG2 cells; test: Selectivity Index (mammalian cell IC50 / bacterial MIC); design: species or system Mycobacterium tuberculosis
# M.tb H37Rv = test: Broth microdilution MIC with Alamar blue endpoint (MABA) / OD600; type: cell-based, Mycobacterium tuberculosis
# [4] = Liposome loading / encapsulation efficiency (General protocol)
# [5] = Mycobacterium tuberculosis, ERDMAN; read-out: Mycobacterium tuberculosis MIC, Erdman
# [6] = Chlorocebus sabaeus, Vero, 72 h; read-out: Cell viability IC50, VERO
# [7] = Homo sapiens, HepG2, 72 h; read-out: Cell viability IC50, HepG2
# [8] = Mycobacterium tuberculosis, H37RV; read-out: Mycobacterium tuberculosis MIC, H37Rv
# [9] = Mycobacterium tuberculosis, ERDMAN, read-out: Mycobacterium tuberculosis MIC, Erdman
# [10] = Chlorocebus sabaeus, Vero, 72 h, read-out: Cell viability IC50, VERO
# [11] = Homo sapiens, HepG2, 72 h, read-out: Cell viability IC50, HepG2
# [12] = Mycobacterium tuberculosis, H37RV, read-out: Mycobacterium tuberculosis MIC, H37Rv
Compound,MIC (M.tb Erdman; [5]),"IC50 [1, 6]","IC50 [2, 7]",Selectivity Index (SI) Erd/HepG2 [3],Selectivity Index (SI) Erd/VERO [3],MIC (M.tb H37Rv; [8]),also measured
CCN(CC)CCCNc1ccc(-c2ccc(N3C[C@H](CO)OC3=O)cc2F)cn1 [AKG-15],> 8 mg/L,156 mg/L,35.6 mg/L,<4.5,<19.5,> 8 mg/L,–
CCN(CC)CCNC[C@H]1CN(c2ccc(-c3ccc(-c4nnn(C)n4)nc3)c(F)c2)C(=O)O1 [AKG-9],–,–,–,<3.5,<17.4,–,"MIC (M.tb Erdman; [9]): > 8 mg/L; IC50 [1, 10]: 139 mg/L; IC50 [2, 11]: 28.1 mg/L; MIC (M.tb H37Rv; [12]): > 8 mg/L"
CCN(CC)CCCn1nnc(-c2ccc(-c3ccc(N4C[C@H](CO)OC4=O)cc3F)cn2)n1 [AKG-26],2 mg/L,128 mg/L,9 mg/L,4.5,64.3,2 mg/L,–
CN(C)CCCC(=O)OC[C@H]1CN(c2ccc(-c3ccc(-c4nnn(C)n4)nc3)c(F)c2)C(=O)O1 [AKG-5],1 mg/L,32.5 mg/L,30.8 mg/L,30.8,–,1 mg/L,"Maximum encapsulated drug payload ([4]; 0.5 M AS, 0.5 mol% PEG): 627 g/mol PhL; loading efficiency at or near the maximum drug load ([4]; 1 N TEA-SOS, DL0 750-1500 g/mol PhL): ≥ 96.0%; maximum drug load ([4]; 1 N TEA-SOS, DL0 750-1500 g/mol PhL, no buffer): 982-1197 g/mol PhL; stability during liposome loading (HPLC) ([4]; Example 12): Degradation of AKG-5 during the liposome loading was detected; Drug loading efficiency ([4]; PEG-DSG 0.5 mol%, 1 N TEA-SOS, DL0 500 g/mol PhL): 101.3; Drug loading efficiency ([4]; PEG-DSG 0.5 mol%, […] AS, DL0 250 g/mol PhL): 98.5; Drug loading efficiency ([4]; PEG-DSG 0.5 mol%, […] AS, DL0 500 g/mol PhL): 97.7; Drug loading efficiency ([4]; PEG-DSG 5 mol%, 1 N TEA-SOS, DL0 500 g/mol PhL): 99.3"
CCN(CC)CCCNC[C@H]1CN(c2ccc(-c3ccc(-c4nnn(C)n4)nc3)c(F)c2)C(=O)O1 [AKG-8],–,–,–,–,–,–,MIC (M.tb Erdman; [9]): > 8 mg/L; MIC (M.tb H37Rv; [12]): > 8 mg/L
CCN(CC)CCC(=O)OC[C@H]1CN(c2ccc(-c3ccc(-c4nnn(C)n4)nc3)c(F)c2)C(=O)O1 [AKG-20],0.5 mg/L,> 250 mg/L,15.1 mg/L,30.2,>500,0.5 mg/L,–
CCN(CC)CCOC[C@H]1CN(c2ccc(-c3ccc(-c4nnn(C)n4)nc3)c(F)c2)C(=O)O1 [AKG-7],> 8 mg/L,104 mg/L,11.2 mg/L,<1.4,13.0,> 8 mg/L,–
CN(C)CCC1CCN(c2ccc(-c3ccc(N4C[C@H](CO)OC4=O)cc3F)cn2)CC1 [AKG-11],4 mg/L,31.9 mg/L,42.8 mg/L,10.7,8.0,4 mg/L,–
CCN(CC)CCn1nnc(-c2ccc(-c3ccc(N4C[C@H](CO)OC4=O)cc3F)cn2)n1 [AKG-24],1 mg/L,31.3 mg/L,11.4 mg/L,11.4,31.3,1 mg/L,–
CCN(CC)C[C@H]1CN(c2ccc(-c3ccc(-c4nnn(C)n4)nc3)c(F)c2)C(=O)O1 [AKG-2],> 8 mg/L,67.9 mg/L,24.5 mg/L,<3.1,<8.5,> 8 mg/L,–
Cl.NCCCn1nnc(-c2ccc(-c3ccc(N4C[C@H](CO)OC4=O)cc3F)cn2)n1 [AKG-27],0.5 mg/L,5.6 mg/L,9 mg/L,18.0,11.2,0.5 mg/L,–
CN(C)CCn1nnnc1-c1ccc(-c2ccc(N3C[C@H](CO)OC3=O)cc2F)cn1 [AKG-21],> 8 mg/L,> 250 mg/L,156 mg/L,<19.5,–,> 8 mg/L,–
CN(C)C[C@H]1CN(c2ccc(-c3ccc(-c4nnn(C)n4)nc3)c(F)c2)C(=O)O1 [AKG-1],> 8 mg/L,113 mg/L,116 mg/L,<14.5,<14.1,> 8 mg/L,–
CCN(CC)CCCn1nnc(-c2ccc(-c3ccc(N4C[C@H](CN)OC4=O)cc3F)cn2)n1 [AKG-31],–,–,–,26.4,223.0,–,–
Cl.Cn1nnc(-c2ccc(-c3ccc(N4C[C@H](CNC(=O)CCN)OC4=O)cc3F)cn2)n1 [AKG-19],> 8 mg/L,> 250 mg/L,42.2 mg/L,5.3,>31.3,> 8 mg/L,–
CN(C)CCNc1ccc(-c2ccc(N3C[C@H](CO)OC3=O)cc2F)cn1 [AKG-12],–,–,–,16.9,22.3,–,"MIC (M.tb Erdman; [9]): 4 mg/L; IC50 [1, 10]: 89.1 mg/L; IC50 [2, 11]: 67.6 mg/L; MIC (M.tb H37Rv; [12]): 4 mg/L"
Cl.Cn1nnc(-c2ccc(-c3ccc(N4C[C@H](CNC(=O)CCCN)OC4=O)cc3F)cn2)n1 [AKG-18],–,–,–,–,–,–,"Mycobacterium tuberculosis MIC, Erdman (M.tb Erdman): 2 mg/L; Cell viability IC50, VERO ([1]; 72 h): >250 mg/L; Cell viability IC50, HepG2 ([2]; 72 h): 9.5 mg/L; Mycobacterium tuberculosis MIC, H37Rv (M.tb H37Rv): 2 mg/L"
CCN(CC)CCNc1ccc(-c2ccc(N3C[C@H](CO)OC3=O)cc2F)cn1 [AKG-13],> 8 mg/L,93.9 mg/L,31.8 mg/L,<4.0,<11.7,> 8 mg/L,–
Cl.Cn1nnc(-c2ccc(-c3ccc(N4C[C@H](CNC(=O)CCN)OC4=O)cc3F)cn2)n1 [AKG-17],–,–,–,–,–,–,"Mycobacterium tuberculosis MIC, Erdman (M.tb Erdman): 2 mg/L; Cell viability IC50, VERO ([1]; 72 h): >250 mg/L; Cell viability IC50, HepG2 ([2]; 72 h): 37.3 mg/L; Mycobacterium tuberculosis MIC, H37Rv (M.tb H37Rv): 2 mg/L"
Cl.NCCn1nnc(-c2ccc(-c3ccc(N4C[C@H](CO)OC4=O)cc3F)cn2)n1 [AKG-23],0.25 mg/L,> 250 mg/L,7.3 mg/L,29.2,>1000,0.25 mg/L,–
CN(C)CCCNc1ccc(-c2ccc(N3C[C@H](CO)OC3=O)cc2F)cn1 [AKG-14],8 mg/L,–,–,–,–,8 mg/L,–
"COc1nc2ccc(Br)cc2cc1[C@@H](c1ccccc1)[C@@](O)(CCN(C)C)c1cccc2ccccc12 [Bedaquiline, reference compound]",–,–,–,–,–,–,"MIC (M.tb Erdman; Mycobacterium tuberculosis; M. tuberculosis Erdman / H37Rv, strains not separated; read-out: MIC): 0.125 mg/L"
CN(C)CCC1CCN(C[C@H]2CN(c3ccc(-c4ccc(-c5nnn(C)n5)nc4)c(F)c3)C(=O)O2)CC1 [AKG-6],> 8 mg/L,27.4 mg/L,15.5 mg/L,<1.9,3.4,> 8 mg/L,–
CN(C)CCCn1nnc(-c2ccc(-c3ccc(N4C[C@H](CO)OC4=O)cc3F)cn2)n1 [AKG-25],1 mg/L,182 mg/L,9.4 mg/L,9.4,182.0,1 mg/L,–

# — patent US20230348447A1, “OXAZOLIDINONE COMPOUNDS, LIPOSOME COMPOSITIONS COMPRISING OXAZOLIDINONE COMPOUNDS AND METHOD OF USE THEREOF” (priority 2020, published 2023)
